Data published in article PMC2905291, “A phase I study of the safety and pharmacokinetics of the histone deacetylase inhibitor belinostat administered in combination with carboplatin and/or paclitaxel in patients with solid tumours” (British Journal of Cancer, 2010).
Where two headings read alike, the source gives them in different places.

Legend:
[1] = Carboplatin (platinum by ICP-MS) plasma pharmacokinetics in patients after belinostat and paclitaxel; format: in vivo, human; conditions: for AUCall / AUCinf / Cl / Cmax / T1/2 / Vss: mean±s.d.
Description: (§1) Blood samples for belinostat PK, when administered alone were taken pre-treatment, at the end of infusion and 5 min, 15, 30 min, 1 h, 2, 3 h, 3 h 15 min, 3 h 30 min, 4, 5, 6 h after infusion on days 1 and 3 of cycle 1. Samples for carboplatin or paclitaxel when administered after belinostat, were taken relative to the start of belinostat infusion at 3 h (pre-carboplatin or-paclitaxel), 3 h 15 min, 3 h 30 min, 4, 5 and 6 h in cycle 1 on day 3. In addition, samples were taken for BelCaP when administered together at 6 h 15 min, 6 h 30 min, 7, 8, 9 and 24 h after belinostat on day 3. Belinostat and paclitaxel levels were determined in lithium-heparinised plasma using validated solid-phase extraction high performance liquid chromatograpgy (HPLC)-tandem mass spectrometric detection (MS/MS) methods (Covance, Indianapolis, IN, USA). The lower limit of quantitation was 5 and 10 ng ml^−1 for belinostat and paclitaxel, respectively. Belinostat plasma concentrations were determined at Covance using a validated method involving solid-phase extraction, separation with acetic acid acetonitril gradient on reversed phase C18 silica and MS/MS using penta-deuterated belinostat as the internal standard. Belinostat and the internal standard were detected using negative ion electron spray with the transition from 317 to 143 and 322 to 143 m z^−1, respectively.
Human plasma samples were analysed for Pt from carboplatin by inductively coupled plasma-mass spectrometry after dilution with 0.01% Triton X-100 in 0.1% nitric acid. The samples were analysed without pre-digestion or extraction directly against matrix-matched standard solutions. Intensity, as counts per second from Pt, mass 195, was measured. Terbium, mass 159, was used as an internal standard. The results were calculated from the net intensity ratio of Pt to internal standard. The standard curve range was 2.00–1000 ng Pt ml^−1 in plasma. Samples above the calibration range were diluted using blank human plasma.
(§2) Plasma concentration–time curves of all three analytes were analysed by non-compartmental methods using WinNonlin (version 4.0.1 Pharsight Corp., Cary, NC, USA). For all analytes the AUC was estimated from the start of infusion by the logarithmic-linear trapezoidal rule and extrapolated to infinity using the estimated value of the slope of the terminal logarithmic-linear disposition phase. Analysis was carried out on the non-dose-normalised plasma concentration of carboplatin, as dosing had already been normalised per GFR using Calvert's formula ([Calvert et al, 1989]).

[2] = Paclitaxel plasma pharmacokinetics in patients after belinostat (LC-MS/MS, non-compartmental); format: in vivo, human
Description: as §1
Paclitaxel and the internal standard, cephalomannine, are extracted from human plasma by solid-phase extraction on a cyanopropyl solid-phase extraction cartridge. After eluting with the mobile phase, the eluent is directly analysed using liquid chromatography with MS/MS. The standard curve range for this assay is from 10.0 to 2000 ng ml^−1 for paclitaxel, using a plasma sample volume of 0.250 ml.
as §2

[3] = tested on: patients with solid tumours; conditions: ref Munster et al, cited from earlier work; for patients who responded: valproic acid with epirubicin, 2009
[4] = tested on: patients with advanced solid malignancies; parameters: method as in Ramalingam et al, 2007a; conditions: ref Ramalingam et al, 2007a, cited from earlier work
[5] = carboplatin equivalents from total platinum, target AUC 5 i.v. day 3 after belinostat 600 mg m^−2 and paclitaxel, 7 patients
[6] = carboplatin equivalents from total platinum, target AUC 5 i.v. day 3 after belinostat 800 mg m^−2 and paclitaxel, 3 patients
[7] = carboplatin equivalents from total platinum, target AUC 5 i.v. day 3 after belinostat 1000 mg m^−2 and paclitaxel, 7 patients
[8] = carboplatin equivalents, target AUC 5 i.v. day 3, Total Mean over all belinostat dose levels
[9] = human, plasma, iv, paclitaxel 175 mg m^−2 i.v. day 3 after belinostat 600 mg m^−2, 6 patients, mean±s.d.
[10] = human, plasma, iv, paclitaxel 175 mg m^−2 i.v. day 3 after belinostat 800 mg m^−2, 3 patients, mean±s.d.
[11] = human, plasma, iv, paclitaxel 175 mg m^−2 i.v. day 3 after belinostat 1000 mg m^−2, 7 patients, mean±s.d.
[12] = paclitaxel 175 mg m^−2 i.v. day 3 after belinostat 600 mg m^−2, 6 patients, mean±s.d.
[13] = paclitaxel 175 mg m^−2 i.v. day 3 after belinostat 800 mg m^−2, 3 patients, mean±s.d.
[14] = paclitaxel 175 mg m^−2 i.v. day 3 after belinostat 1000 mg m^−2, 7 patients, mean±s.d.
[15] = valproic acid combined with epirubicin, 2007
[16] = vorinostat with carboplatin and paclitaxel, 25 patients treated

**Q.** For `N.N.O=C([O-])C1(C(=O)[O-])CCC1.[Pt+2]` [carboplatin], which “effect of concurrent administration on pharmacokinetics” value ([1]; carboplatin after belinostat) is on record?
**A.** unaltered

**Q.** And the AUCall [1, 5]?
**A.** 7.8 ± 1.4 mg·min/mL

**Q.** And the AUCinf [1, 5]?
**A.** 8.8 ± 1.3 mg·min/mL

**Q.** What about the Cl [1, 5] of the same compound?
**A.** 4.4 ± 0.9 L/h

**Q.** What about the Cmax [1, 5] of the same compound?
**A.** 27400 ± 4000 ng/mL

**Q.** And the T1/2 [1, 5]?
**A.** 7.8 ± 2.7 h

**Q.** What about the Vss [1, 5] of the same compound?
**A.** 34.3 ± 16.1 L

**Q.** And the AUCall [1, 6]?
**A.** 8.9 ± 2.1 mg·min/mL

**Q.** And the AUCinf [1, 6]?
**A.** 9.7 ± 1.9 mg·min/mL

**Q.** And the Cl [1, 6]?
**A.** 4.1 ± 0.5 L/h

**Q.** And the Cmax [1, 6]?
**A.** 32800 ± 11700 ng/mL

**Q.** What about the T1/2 [1, 6] of the same compound?
**A.** 5.4 ± 1.0 h

**Q.** And the Vss [1, 6]?
**A.** 21.9 ± 7.6 L

**Q.** What about the AUCall [1, 7] of the same compound?
**A.** 8.4 ± 1.0 mg·min/mL

**Q.** What about the AUCinf [1, 7] of the same compound?
**A.** 9.3 ± 1.1 mg·min/mL

**Q.** What about the Cl [1, 7] of the same compound?
**A.** 3.5 ± 0.8 L/h

**Q.** And the Cmax [1, 7]?
**A.** 29600 ± 14000 ng/mL

**Q.** And the T1/2 [1, 7]?
**A.** 6.0 ± 0.8 h

**Q.** What about the Vss [1, 7] of the same compound?
**A.** 20.4 ± 3.5 L

**Q.** What about the AUCall [1, 8] of the same compound?
**A.** 8.2 ± 1.4 mg·min/mL

**Q.** What about the AUCinf [1, 8] of the same compound?
**A.** 9.2 ± 1.3 mg·min/mL

**Q.** And the Cl [1, 8]?
**A.** 3.9 ± 0.8 L/h

**Q.** And the Cmax [1, 8]?
**A.** 29200 ± 1000 ng/mL

**Q.** What about the T1/2 [1, 8] of the same compound?
**A.** 6.6 ± 2.1 h

**Q.** And the Vss [1, 8]?
**A.** 26.4 ± 12.5 L

**Q.** Which AUC [2, 9] does the source give for `CC(=O)O[C@H]1C(=O)[C@@]2(C)[C@H]([C@H](OC(=O)c3ccccc3)[C@]3(O)C[C@H](OC(=O)[C@H](O)[C@@H](NC(=O)c4ccccc4)c4ccccc4)C(C)=C1C3(C)C)[C@]1(OC(C)=O)CO[C@@H]1C[C@@H]2O` [paclitaxel] here?
**A.** 14 ± 2.5 µM·h

**Q.** What about the AUC(0-inf) [2, 9] of the same compound?
**A.** 14.7 ± 2.6 µM·h

**Q.** And the Cmax [2, 9]?
**A.** 3.9 ± 0.7 µM

**Q.** And the half-life [2, 9]?
**A.** 5.7 ± 0.5 h

**Q.** What about the AUC [2, 10] of the same compound?
**A.** 12.8 ± 1.7 µM·h

**Q.** What about the AUC(0-inf) [2, 10] of the same compound?
**A.** 13.3 ± 2 µM·h

**Q.** What about the half-life [2, 10] of the same compound?
**A.** 5.5 ± 1.1 h

**Q.** What about the AUC [2, 11] of the same compound?
**A.** 14.4 ± 3.8 µM·h

**Q.** What about the AUC(0-inf) [2, 11] of the same compound?
**A.** 15 ± 4 µM·h

**Q.** And the half-life [2, 11]?
**A.** 5.5 ± 0.6 h

**Q.** And the Cl [2, 12]?
**A.** 14.3±2.2 l h^−1 m^−2

**Q.** What about the Vss [2, 12] of the same compound?
**A.** 56.6±21.2 l m^−2

**Q.** And the Cl [2, 13]?
**A.** 15.7±2.6 l h^−1 m^−2

**Q.** What about the Vss [2, 13] of the same compound?
**A.** 53.0±3.0 l m^−2

**Q.** What about the Cl [2, 14] of the same compound?
**A.** 14.8±4.9 l h^−1 m^−2

**Q.** What about the Vss [2, 14] of the same compound?
**A.** 57.2±31.7 l m^−2

**Q.** And the “effect of concurrent administration on pharmacokinetics” value ([2]; paclitaxel after belinostat)?
**A.** unaltered

**Q.** Which results are given for `CCCC(CCC)C(=O)O` [valproic acid]?
**A.** dose-limiting toxicities [3, 15]: neurological DLTs; grade II–III QTc prolongation, patients [3, 15]: approximately 25%; patients who responded ([3]; of 41 patients with a variety of solid tumours): 9; patients who responded ([3]; phase II portion, breast cancer): 64%

**Q.** For `O=C(CCCCCCC(=O)Nc1ccccc1)NO` [vorinostat], which “grade III/IV neutropenia, patients” value ([4]; vorinostat with carboplatin and paclitaxel at higher dose than present study) is on record?
**A.** 50%

**Q.** What about the “patients with PR, head and neck cancer” value [4, 16] of the same compound?
**A.** 1

**Q.** What about the “patients with PR, non-small-cell lung cancer” value [4, 16] of the same compound?
**A.** 10
